Assay results from ChEMBL document CHEMBL1134742, “Synthesis and structure-activity relationships of thiotetronic acid analogues of thiolactomycin” (2001).
≈ marks a conversion by molar mass, not a printed value.

Key:
Pasteurella multocida = assay: Antibacterial activity against Pasteurella multocida; type: functional
Staphylococcus aureus = assay: Antibacterial activity against Staphylococcus aureus; type: functional

Compound	MIC (Pasteurella multocida)	MIC (Staphylococcus aureus)
CC1=C(O)S[C@](C)(/C=C(C)/C=C/C#N)C1=O	> 100 µg/mL	> 100 µg/mL
CC(=O)C1=C(O)S/C(=C\c2ccc(C#N)cc2)C1=O	> 200 µg/mL	3.13 µg/mL (≈ 11.5 µM)
CC1=C(O)S[C@](C)(/C=C(C)/C=N/OCc2ccccc2)C1=O	> 100 µg/mL	> 100 µg/mL
CC(=O)C1=C(O)S/C(=C\c2cccs2)C1=O	1.56 µg/mL (≈ 6.18 µM)	> 200 µg/mL
CCCNC/C(C)=C/[C@@]1(C)SC(O)=C(C)C1=O	> 100 µg/mL	> 100 µg/mL
CC(=O)C1=C(O)S/C(=C\c2ccc(F)cc2)C1=O	3.13 µg/mL (≈ 11.8 µM)	> 200 µg/mL
CC1=C(O)S[C@](C)(/C=C(\C)C#N)C1=O	> 100 µg/mL	> 100 µg/mL
CCOC(=O)/C=C/C(C)=C/[C@@]1(C)SC(O)=C(C)C1=O	> 100 µg/mL	> 100 µg/mL
CCCCCC(=O)/C=C/C(C)=C/[C@@]1(C)SC(O)=C(C)C1=O	> 100 µg/mL	> 100 µg/mL
CC(=O)C1=C(O)C(C)(Cc2ccc(F)cc2)SC1=O (stereo not given)	> 200 µg/mL	> 200 µg/mL
CCOC(=O)/C=C/C=C/C(C)=C/[C@@]1(C)SC(O)=C(C)C1=O	> 100 µg/mL	> 100 µg/mL
CC(=O)C1=C(O)SC(C)(C/C=C(/C)CCC=C(C)C)C1=O (stereo not given)	100 µg/mL (≈ 324 µM)	> 200 µg/mL
CC(=O)C1=C(O)SC(C/C=C/c2ccccc2)C1=O (stereo not given)	3.13 µg/mL (≈ 11.4 µM)	3.13 µg/mL (≈ 11.4 µM)
CC(=O)C1=C(O)SC(CCC(C)CCCC(C)C)C1=O (stereo not given)	3.13 µg/mL (≈ 10.5 µM)	0.78 µg/mL (≈ 2.61 µM)
CC(=O)C1=C(O)SC(C/C=C(/C)CC/C=C(\C)CCC=C(C)C)(C/C=C(/C)CC/C=C(\C)CCC=C(C)C)C1=O	> 200 µg/mL	> 200 µg/mL
CC(=O)C1=C(O)S/C(=C\c2cccc(Oc3cccc(C(F)(F)F)c3)c2)C1=O	3.13 µg/mL (≈ 7.7 µM)	0.78 µg/mL (≈ 1.92 µM)
CC(=O)C1=C(O)S/C(=C\c2cccc(OCc3ccccc3)c2)C1=O	> 200 µg/mL	3.13 µg/mL (≈ 8.88 µM)
CC(=O)OC1=C(C)C(=O)S[C@]1(C)/C=C(\C)C=O	> 100 µg/mL	> 100 µg/mL
CC(=O)C1=C(O)SCC1=O	> 200 µg/mL	> 200 µg/mL
CC1=C(O)S[C@](C)(/C=C(\C)C=C(Br)Br)C1=O	> 100 µg/mL	> 100 µg/mL

Compound	MIC (Pasteurella multocida)	MIC (Staphylococcus aureus)
CC(=O)C1=C(O)S/C(=C\c2cccc(Oc3ccc(Cl)c(Cl)c3)c2)C1=O	0.2 µg/mL (≈ 0.491 µM)	1.56 µg/mL (≈ 3.83 µM)
CC(=O)C1=C(O)SC(C)C1=O (stereo not given)	6.25 µg/mL (≈ 36.3 µM)	50 µg/mL (≈ 290 µM)
CC(=O)C1=C(O)SC(Cc2cccc(C(F)(F)F)c2)C1=O (stereo not given)	3.13 µg/mL (≈ 9.9 µM)	3.13 µg/mL (≈ 9.9 µM)
CC(=O)C1=C(O)C(C)(C/C=C/c2ccccc2)SC1=O (stereo not given)	> 200 µg/mL	3.13 µg/mL (≈ 10.9 µM)
CC(=O)C1=C(O)S/C(=C\c2ccc(O)cc2)C1=O	> 200 µg/mL	> 200 µg/mL
CC(=O)C1=C(O)S/C(=C\c2ccc(Cl)cc2Cl)C1=O	3.13 µg/mL (≈ 9.93 µM)	3.13 µg/mL (≈ 9.93 µM)
CC(=O)C1=C(O)S/C(=C\c2cccc(F)c2)C1=O	6.25 µg/mL (≈ 23.6 µM)	50 µg/mL (≈ 189 µM)
CC(=O)C1=C(O)SC(COC(=O)Cc2ccccc2)C1=O (stereo not given)	> 200 µg/mL	3.13 µg/mL (≈ 10.2 µM)
C=C/C(C)=C\[C@@]1(C)SC(O)=C(C)C1=O	0.2 µg/mL (≈ 0.951 µM)	> 100 µg/mL
CC(=O)C1=C(O)S/C(=C\c2ccccc2)C1=O	> 200 µg/mL	> 200 µg/mL
CC(=O)C1=C(O)S/C(=C\N(C)C)C1=O	> 200 µg/mL	> 200 µg/mL
C=C/C(C)=C/[C@@]1(C)SC(=O)C(C)=C1OC(C)=O	> 100 µg/mL	> 100 µg/mL
CC(=O)C1=C(O)S/C(=C\c2ccccn2)C1=O	100 µg/mL (≈ 404 µM)	> 200 µg/mL
CC(=O)C1=C(O)S/C(=C\c2ccc(C(F)(F)F)cc2)C1=O	3.13 µg/mL (≈ 9.96 µM)	3.13 µg/mL (≈ 9.96 µM)
CC(=O)C1=C(O)S/C(=C\c2ccc3c(c2)OCO3)C1=O	> 200 µg/mL	> 200 µg/mL
CC1=C(O)S[C@](C)(/C=C(C)/C=C/c2ccccc2)C1=O	> 100 µg/mL	> 100 µg/mL
CC(=O)/C=C/C(C)=C/[C@@]1(C)SC(O)=C(C)C1=O	> 100 µg/mL	> 100 µg/mL
CC1=C(O)S[C@](C)(/C=C(\C)CO)C1=O	> 100 µg/mL	> 100 µg/mL
CC(=O)C1=C(O)SC(C/C=C(\C)CC/C=C(\C)CCC=C(C)C)C1=O (stereo not given)	0.2 µg/mL (≈ 0.552 µM)	1.56 µg/mL (≈ 4.3 µM)
CC(=O)C1=C(O)SC(C)(C/C=C(\C)CC/C=C(\C)CCC=C(C)C)C1=O (stereo not given)	1.56 µg/mL (≈ 4.14 µM)	> 200 µg/mL
